Measured values: PMC12040169 (PLOS Biology, 2025)

Experiment: in vitro
Conditions: human, hela cells, % viability

Compound	viability at 28.5 h, 10 µM [%]	viability at 28.5 h, 10 µM (bulk resorufin, single well) [%]
CCc1cc(-c2n[nH]cc2-c2nc(C)cs2)c(O)cc1OC [CBK287934]	103	–
Cc1nnc(Sc2ccc([N+](=O)[O-])cc2Cl)n1Cc1ccccc1 [CBK269694]	102	–
COc1ccc(CN2CCCN(C(=O)c3ccc(F)cc3Br)CC2)cc1 [CBK251752]	88.1	–
CCOc1ccc(CN2CCNC(=O)C2CC(=O)O)cc1 (stereo not shown) [CBK269242]	107	–
COc1cc(NC(=O)N2CCN(c3cc(C(F)(F)F)ccn3)CC2)cc(OC)c1OC [CBK162349]	95.2	–
O=C(CSc1nnc(COc2ccc(Br)cc2)o1)OC1CCCCC1 [CBK027482]	88.8	–
OCc1ccc(-c2cc(NCc3cccs3)n3nccc3n2)cc1 [CBK037046]	106	–
CCOC(=O)C1CCN(C(=O)c2ccc(OC)cc2)CC1 [CBK074220]	99.2	–
Clc1ccc2c(c1)NC(c1ccco1)N1CCN=C21 (stereo not shown) [CBK284479]	84.8	–
COCCNC(=O)C1CCN(c2nc3c(-c4cccc(C)c4)csc3c(=O)[nH]2)CC1 [CBK215629]	93.1	–
CCN(CC)CCNC(=O)c1c(C)[nH]c(/C=C2\C(=O)Nc3ccc(F)cc32)c1C [CBK149343]	50.7	–
Cc1nc2ccc(C(=O)NC3=NC(=O)CS3)cn2c1N(C)Cc1cccs1 [CBK146110]	86.3	–
O=C1Nc2ccc(-c3cccc(C(F)(F)F)c3)cc2C(=O)N2CCN(C(=O)C3CC3)C[C@H]12 [CBK289585]	79.4	–
Cc1cc2ccccc2n2c(=O)n(CC(=O)N(C(C)C)C(C)C)nc12 [CBK283885]	87.1	–
CCN(CC)c1cc(N2CCCNCC2)ccc1S(=O)(=O)c1cccc(F)c1 [CBK018509C]	101	–
CN(C)C(=O)CO[C@@H]1CO[C@H]2[C@@H]1OC[C@@H]2Nc1nccc(-c2cccc(F)c2)n1 [CBK289533]	87.9	–
CC(NC(=O)N1CCCCC1CO)c1ccccc1 (stereo not shown) [CBK155988]	93.1	–
COC(=O)c1csc2nc(NCCCO)sc12 [CBK058832]	91.4	–
O=C(c1ccccc1)c1nnsc1-c1ccccc1 [CBK008193]	97	–
Cn1cc(-c2nc(C3CCCCCN3C(=O)c3cc(Cl)c[nH]3)no2)cn1 (stereo not shown) [CBK306396]	86.4	–
O=C(CN1C(=O)S/C(=C\c2ccc(OCc3ccccc3F)cc2)C1=O)c1ccc(Cl)cc1 [CBK264632]	97.6	–
CCOc1ccc(-c2nn(-c3ccccc3)cc2/C=C2\SC(=S)N(CC(=O)O)C2=O)cc1F [CBK265647]	105	–

Compound	viability at 28.5 h, 10 µM [%]	viability at 28.5 h, 10 µM (bulk resorufin, single well) [%]
O=C(O)CCSc1nc(-c2ccccc2)c(-c2ccccc2)[nH]1 [CBK264228]	109	–
COCCc1noc(CC2CCN(c3ccc(C#N)nc3)CC2)n1 [CBK304094]	89.9	–
CCNC(=O)N(C)C1CCN(c2ncnc3ccccc23)CC1 [CBK305537]	110	–
O=S(=O)(Nc1ccc2nsnc2c1)c1ccc(F)cc1 [CBK051010]	90.2	–
Cc1ccc(C(=O)N2CCN(S(=O)(=O)c3sc(C(=O)O)c(C)c3C(=O)O)CC2)cc1 [CBK297120]	91.1	–
Cc1[nH]ncc1CN1CCCC(c2cc3ccccc3cn2)C1 (stereo not shown) [CBK285029]	108	–
COc1ccc(NC(=O)c2cc([N+](=O)[O-])ccc2N2CCN(C)CC2)cc1 [CBK263017]	102	–
O=C(O)C(Cc1ccccc1)n1cnnn1 (stereo not shown) [CBK021162]	109	–
Cc1cccc(C)c1NC(=O)Nc1ccc(F)cc1F [CBK300526]	90.2	–
O=c1[nH]c(-c2ccccc2)nc2c1CN(Cc1cccs1)CC2 [CBK282330]	87.1	–
COCC(=O)N1CCN(C(=O)c2cccs2)[C@@H](C(=O)OC)C1 [CBK289614]	111	–
Nc1ccc(Cl)cc1C(O)(CCCN1CCCCC1)c1ccccc1 (stereo not shown) [CBK023107]	98.1	–
CCOc1ccc(CNCCc2ccc(S(N)(=O)=O)cc2)cc1 [CBK268090C]	94.6	–
O=C1NC(=O)N(c2ccc3c(c2)OCO3)C(=O)/C1=C/c1ccc(OCc2cccc(C(=O)O)c2)cc1 [CBK263805]	–	106
CCOc1ccc(S(=O)(=O)N2CCC(C(=O)N3CCOCC3)CC2)cc1Cl [CBK270288]	93.8	–
O=S(=O)(Nc1cccc(-c2cnco2)c1)c1ccc(Cl)c(Cl)c1 [CBK067117]	80.9	–
O=C(CN1CCN(Cc2ccc3c(c2)OCO3)CC1)Nc1ccc(Cl)cc1C(=O)c1ccccc1 [CBK264241]	103	–
Cc1c(C(=O)N(C)CC(C)C)nnn1-c1ccc2ncccc2c1 [CBK305161]	102	–
COCCCOc1nccnc1NC(C)C [CBK115876]	90	–
C=CCn1nnc(NC(=O)COc2ccccc2)n1 [CBK288131]	108	–
CC(=O)c1c(C)nn2c3ccccc3n(CCN3CCOCC3)c12 [CBK262709C]	115	–
CC(=O)N1CCC[C@H]2NC(=O)CNC(=O)C3(C/C=C/C[C@H]21)CCNCC3 [CBK292173]	89.8	–

Compound	viability at 28.5 h, 10 µM [%]	viability at 28.5 h, 10 µM (bulk resorufin, single well) [%]
Cc1nc2c(C(=O)N3CCOCC3)cnn2c(C)c1Cc1ccccc1 [CBK162201]	113	–
CN(C(=O)c1cc(S(=O)(=O)N2CCOCC2)ccc1F)C1CCCCC1 [CBK304580]	114	–
O=C(CN1CCCC1)Nc1sc2c(c1C(=O)Nc1ccccc1)CCCC2 [CBK268800]	103	–
Fc1cc(Br)ccc1-c1cn(-c2ccc(Oc3ccccc3)cc2)nn1 [CBK113145]	89.5	–
COc1cccc(-c2ccc(C(=O)NCCNC(C)=O)c(N3CCOCC3)n2)c1 [CBK076465]	86.3	–
COCCCNC(=O)Cn1cccc2cc(-c3ccc(F)cc3)nc1-2 [CBK284834]	93.4	–
CC(=O)Nc1ccc(NC(=O)/C=C/c2ccc(Cl)cc2)cc1 [CBK264766]	116	–
CCCc1ccc(S(=O)(=O)Nc2cccc(C(=O)N3CCN(C)CC3)c2)cc1 [CBK039034]	122	–
CCOC(=O)CSc1nnc(-c2ccc(Cl)cc2)o1 [CBK068845]	105	–
CC(C)(CO)CNc1cncc(-c2cccc(C(F)(F)F)c2)n1 [CBK065248]	102	–
CCc1cc2c(=O)c(-c3nc(C)cs3)c(CCCC(=O)O)oc2cc1O [CBK264834]	101	–
O=C(OCc1ccc(Sc2ccc([N+](=O)[O-])cc2Cl)cc1)c1cnccn1 [CBK268037]	93.4	–
Cc1c(C(=O)NC2CCN(c3ncccc3C#N)CC2)ccn1C [CBK307681]	103	–
O=C(O)C1CCC(N2C(=O)C3C4CCC(C4)C3C2=O)CC1 (stereo not shown) [CBK287183]	82.2	–
CCc1nn(CC(=O)N(C(C)C)C(C)C)c(=O)c2cc3occc3n12 [CBK283658]	89.3	–
COc1cc(NC(=O)NCc2cncn2CC(C)C)c2ncccc2c1 [CBK307182]	52.1	–
O=C(Cc1nnn[nH]1)N1CCC(Cn2cncn2)(C2CCCCC2)CC1 [CBK136796]	92.2	–
CN(C)CCNc1nc(-c2cccnc2)nc2ccccc12 [CBK264471C]	99.7	–
O=C(C1=C(O)C(=O)N(CCCn2ccnc2)C1c1ccc(Br)cc1)c1ccc2c(c1)OCCO2 (stereo not shown) [CBK266081]	104	–
COc1ccc(Nc2nc(-c3cc(C(C)C)ccc3OC)cnc2N)c(C)c1 [CBK064098]	87	–
COc1cc2c(cc1OC)CN(S(=O)(=O)c1cc(C(=O)O)ccc1Cl)CC2 [CBK296923]	96	–
CN(C)S(=O)(=O)N(CC(=O)NCc1ccncc1)c1ccccc1 [CBK268322]	111	–

Compound	viability at 28.5 h, 10 µM [%]	viability at 28.5 h, 10 µM (bulk resorufin, single well) [%]
Cc1c(NS(=O)(=O)c2cc(C(=O)O)c(Cl)cc2Cl)c(=O)n(-c2ccccc2)n1C [CBK296123]	90.3	–
Clc1cc2nc(SCCc3cnccn3)c(N3CCCC3)nc2cc1Cl [CBK103700]	93.1	–
O=C1N[C@]2(CCc3ccccc31)CN(Cc1ccccc1)C[C@H]2CO [CBK284795]	106	–
O=C(NCCCN1CCOCC1)c1cc2cc([N+](=O)[O-])ccc2oc1=O [CBK263441]	90.9	–
Cc1cc(Br)cc(C)c1OCCNCCN(C)C [CBK267808G]	106	–
CS(=O)(=O)NCC1CCCCN1Cc1ccc(-n2cccn2)cc1 (stereo not shown) [CBK305587]	91.9	–
CC1(C)NC(=O)N(CC(O)Cn2c3ccccc3c3ccccc32)C1=O (stereo not shown) [CBK304318]	86.8	–
N#Cc1c(O)nc(SCC(=O)Nc2ccc(Oc3ccccc3)cc2)nc1-c1ccccc1 [CBK266607]	118	–
O=C(O)CCc1ccc(S(=O)(=O)NCc2ccccc2)cc1 [CBK287054]	79.8	–
COc1ccc(C(NC(=O)c2cc3ccccc3[nH]2)C2CC2)cc1 (stereo not shown) [CBK297896]	97.9	–
Cc1ccccc1C(=O)NCC(=O)Nc1cc2ccccc2c(Br)n1 [CBK063298]	89.4	–
Cc1cc(N2CCCC2)c(F)cc1CN1CCC(O)C(C)C1 (stereo not shown) [CBK282963]	91.6	–
C[C@H](Nc1nccnc1-c1cccc(O)c1)c1ccccc1 [CBK037180]	106	–
Fc1cc(Br)c(CNCc2ccno2)c(N2CCCCC2)c1F [CBK304723]	86.8	–
Cc1ccc2c(c1)nc1n2CCC1O (stereo not shown) [CBK113622]	88.1	–
OCCOc1ccc(OCCOc2nccnc2N2CCNCC2)cc1 [CBK014349G]	93.9	–
O=C(COc1ccc([N+](=O)[O-])cc1)Nc1ccc(CN2CCCCC2)cc1 [CBK266204]	118	–
COCC(=O)N1CCCC(c2nc(C)n3c(C)csc23)C1 (stereo not shown) [CBK285214]	98.7	–
CC(=O)Nc1c(O)nc(SCC(=O)Nc2ccccc2C(N)=O)[nH]c1=O [CBK268031]	97.8	–
COC[C@H]1CCCN1C(=O)CC[C@H]1CNC(=O)[C@@H]2[C@@H](CCN2C2CCOCC2)N1C [CBK289037]	90.9	–
CC(NC(=O)OC(C)(C)C)c1nnc(SCC(=O)N(C)C)o1 (stereo not shown) [CBK269932]	88.3	–
Cc1nc2c(C)cccc2cc1C(=O)NCCCc1ccccn1 [CBK282148]	82.8	–
